In patent US10604554B2, “Double-acylated GLP-1 derivatives” (Novo Nordisk A/S, priority 2012, dated 2020):
Numbered stars: 1 amine (or outer) side, 2 acyl side, 3 side chain; on linkers, the order of the positions; unused ones are H or OH. Square brackets hold non-standard residues; d marks the D form. Side chains are listed from the residue outwards. Peptide text beside a SMILES is read from it. * marks the point of attachment. C18 diacid = O=C(O)CCCCCCCCCCCCCCCCC(=O)*; γGlu = O=C(O)[C@H](CCC(=O)[*:2])N[*:1]; εLys = N[C@@H](CCCCN[*:1])C(=O)[*:2]; AEEA = NCCOCCOCC(=O)O; Aib = CC(C)(N)C(=O)O

Target: T1, human GLP-1 receptor (Homo sapiens, UniProt P43220)
T1 construct: expressed in transfected cells; host or cells: BHK cells, clone FCW467-12A/KZ10-1 (parent line BHKTS13), further transfected with CRE luciferase
T1 sequence (P43220 24-463): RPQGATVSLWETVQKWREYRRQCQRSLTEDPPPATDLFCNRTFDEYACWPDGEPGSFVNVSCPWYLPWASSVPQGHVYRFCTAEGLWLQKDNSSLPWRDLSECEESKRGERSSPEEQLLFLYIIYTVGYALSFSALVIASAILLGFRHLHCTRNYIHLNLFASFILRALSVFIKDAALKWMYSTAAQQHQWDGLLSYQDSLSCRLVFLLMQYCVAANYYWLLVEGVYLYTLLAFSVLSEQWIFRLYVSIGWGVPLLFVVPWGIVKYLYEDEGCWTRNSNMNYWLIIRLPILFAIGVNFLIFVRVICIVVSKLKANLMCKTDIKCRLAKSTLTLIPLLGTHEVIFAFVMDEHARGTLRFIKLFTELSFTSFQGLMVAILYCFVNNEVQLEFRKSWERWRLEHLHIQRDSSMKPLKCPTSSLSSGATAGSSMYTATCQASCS
Experiment: In vitro potency (AlphaScreen cAMP, membranes)
Assay type: biochemical
Conditions: cAMP formation in membranes from BHK467-12A cells expressing human GLP-1 receptor; read-out: In vitro potency (AlphaScreen) EC50
How it was run: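 Plasma membranes (6 μg/well) from BHK467-12A cells stably expressing human GLP-1 receptor stimulated with peptide in pH 7.4 Tris/HEPES buffer with 0.1% BSA, 0.5 mM IBMX, 1 mM ATP, 1 μM GTP. cAMP detected by AlphaScreen competition with biotin-cAMP after 3 h at RT, against cAMP standard.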

SMILES: CC[C@H](C)[C@H](NC(=O)[C@H](Cc1ccccc1)NC(=O)[C@H](CCC(=O)O)NC(=O)[C@H](CCCCNC(=O)[C@@H](N)CCCCNC(=O)[C@@H](N)CCCCNC(=O)CC[C@H](NC(=O)CCCCCCCCCCCCCCCCC(=O)O)C(=O)O)NC(=O)[C@H](C)NC(=O)[C@H](C)NC(=O)[C@H](CCC(N)=O)NC(=O)CNC(=O)[C@H](CCC(=O)O)NC(=O)[C@H](CC(C)C)NC(=O)[C@H](Cc1ccc(O)cc1)NC(=O)[C@H](CO)NC(=O)[C@H](CO)NC(=O)[C@@H](NC(=O)[C@H](CC(=O)O)NC(=O)[C@H](CO)NC(=O)[C@@H](NC(=O)[C@H](Cc1ccccc1)NC(=O)[C@@H](NC(=O)CNC(=O)[C@H](CCC(=O)O)NC(=O)C(C)(C)NC(=O)[C@@H](N)Cc1c[nH]cn1)[C@@H](C)O)[C@@H](C)O)C(C)C)C(=O)N[C@@H](C)C(=O)N[C@@H](Cc1c[nH]c2ccccc12)C(=O)N[C@@H](CC(C)C)C(=O)N[C@H](C(=O)N[C@@H](CCCNC(=N)N)C(=O)NCC(=O)N[C@@H](CCCNC(=N)N)C(=O)N[C@@H](CCCCNC(=O)[C@@H](N)CCCCNC(=O)[C@@H](N)CCCCNC(=O)CC[C@H](NC(=O)CCCCCCCCCCCCCCCCC(=O)O)C(=O)O)C(=O)O)C(C)C [Example 27, N^ε26-[(2S)-2-amino-6-[[(2S)-2-amino-6-[[(4S)-4-carboxy-4-(17-carboxyheptadecanoylamino)butanoyl]amino]hexanoyl]amino]hexanoyl], N^ε37-[(2S)-2-amino-6-[[(2S)-2-amino-6-[[(4S)-4-carboxy-4-(17-carboxyheptadecanoylamino)butanoyl]amino]hexanoyl]amino]hexanoyl]-[Aib^8,Arg^34,Lys^37]-GLP-1-(7-37)-peptide]
- EC50: 3.69 nM

SMILES: CC[C@H](C)[C@H](NC(=O)[C@H](Cc1ccccc1)NC(=O)[C@H](CCC(=O)O)NC(=O)[C@H](CCCCNC(=O)[C@@H](N)CCCCNC(=O)COCCOCCNC(=O)COCCOCCNC(=O)CC[C@H](NC(=O)CCCCCCCCCCCCCCCCC(=O)O)C(=O)O)NC(=O)[C@H](C)NC(=O)[C@H](C)NC(=O)[C@H](CCC(N)=O)NC(=O)[C@H](CCC(=O)O)NC(=O)[C@H](CCC(=O)O)NC(=O)[C@H](CC(C)C)NC(=O)[C@H](Cc1ccc(O)cc1)NC(=O)[C@H](CO)NC(=O)[C@H](CO)NC(=O)[C@@H](NC(=O)[C@H](CC(=O)O)NC(=O)[C@H](CO)NC(=O)[C@@H](NC(=O)[C@H](Cc1ccccc1)NC(=O)[C@@H](NC(=O)CNC(=O)[C@H](CCC(=O)O)NC(=O)C(C)(C)NC(=O)[C@@H](N)Cc1c[nH]cn1)[C@@H](C)O)[C@@H](C)O)C(C)C)C(=O)N[C@@H](C)C(=O)N[C@@H](Cc1c[nH]c2ccccc12)C(=O)N[C@@H](CC(C)C)C(=O)N[C@H](C(=O)N[C@@H](CCC(N)=O)C(=O)NCC(=O)N[C@@H](CCCNC(=N)N)C(=O)N[C@@H](CCCCNC(=O)[C@@H](N)CCCCNC(=O)COCCOCCNC(=O)COCCOCCNC(=O)CC[C@H](NC(=O)CCCCCCCCCCCCCCCCC(=O)O)C(=O)O)C(=O)O)C(C)C [Example 28, N^ε26-[(2S)-2-amino-6-[[2-[2-[2-[[2-[2-[2-[[(4S)-4-carboxy-4-(17-carboxyheptadecanoylamino)butanoyl]amino]ethoxy]ethoxy]acetyl]amino]ethoxy]ethoxy]acetyl]amino]hexanoyl], N^ε37-[(2S)-2-amino-6-[[2-[2-[2-[[2-[2-[2-[[(4S)-4-carboxy-4-(17-carboxyheptadecanoylamino)butanoyl]amino]ethoxy]ethoxy]acetyl]amino]ethoxy]ethoxy]acetyl]amino]hexanoyl]-[Aib^8,Glu^22,Gln^34, Lys^37]-GLP-1-(7-37)-peptide] (H-H[Aib]EGTFTSDVSSYLEEQAAK([εLys-AEEA-AEEA-γGlu-C18 diacid])EFIAWLVQGRK([εLys-AEEA-AEEA-γGlu-C18 diacid])-OH; N-terminus and C-terminus assumed)
- EC50: 7.25 nM
